The supplement of paper PMC10307832

What was measured:
Assay in all cases: relative viability (nuclei count vs DMSO), 5 days (fraction); higher = more cells survive
[1] = compound: C[C@@]1(C(=O)Nc2ccc(F)nc2)CCCN1c1nc(Nc2cc(C3CC3)n[nH]2)c2cccn2n1 + CS(=O)(=O)CCNCc1ccc(-c2ccc3ncnc(Nc4ccc(OCc5cccc(F)c5)c(Cl)c4)c3c2)o1 [Lapatinib] (partner 2 µM)
Procedure, shortened: (§1)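 Five library-drug doses in √10 steps were combined with a fixed anchor-drug dose, or a single drug was given alone, by pin tool to lung cancer cell lines in 1536-well plates the day after seeding. Nuclei were stained and counted after 5 days. Relative viability is the nuclei count in treated wells over that in vehicle wells, taken as the median of duplicate plates.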

Motesanib + Lapatinib = compound: CC1(C)CNc2cc(NC(=O)c3cccnc3NCc3ccncc3)ccc21 [Motesanib] + CS(=O)(=O)CCNCc1ccc(-c2ccc3ncnc(Nc4ccc(OCc5cccc(F)c5)c(Cl)c4)c3c2)o1 [Lapatinib] (partner 2 µM)
Procedure, shortened: as §1

[2] = compound: C[C@@]1(C(=O)Nc2ccc(F)nc2)CCCN1c1nc(Nc2cc(C3CC3)n[nH]2)c2cccn2n1 + Cc1nc(NC(=O)N2CCC[C@H]2C(N)=O)sc1-c1ccnc(C(C)(C)C(F)(F)F)c1 [Alpelisib] (partner 2 µM)
Procedure, shortened: as §1

Motesanib + Pictilisib = compound: CC1(C)CNc2cc(NC(=O)c3cccnc3NCc3ccncc3)ccc21 [Motesanib] + CS(=O)(=O)N1CCN(Cc2cc3nc(-c4cccc5[nH]ncc45)nc(N4CCOCC4)c3s2)CC1 [Pictilisib] (partner 1 µM)
Procedure, shortened: as §1

Cell Line | relative viability ([1]; first compound 0.04 µM) | relative viability ([1]; first compound 0.1265 µM) | relative viability ([1]; first compound 0.4 µM) | relative viability ([1]; first compound 1.265 µM) | relative viability (Motesanib + Lapatinib; first compound 0.01 µM) | relative viability (Motesanib + Lapatinib; first compound 0.03162 µM) | relative viability (Motesanib + Lapatinib; first compound 0.1 µM) | relative viability (Motesanib + Lapatinib; first compound 0.3162 µM) | relative viability (Motesanib + Lapatinib; first compound 1 µM) | relative viability ([2]; first compound 0.04 µM) | relative viability ([2]; first compound 0.1265 µM) | relative viability ([2]; first compound 0.4 µM) | relative viability ([2]; first compound 1.265 µM) | relative viability (Motesanib + Pictilisib; first compound 0.01 µM) | relative viability (Motesanib + Pictilisib; first compound 0.03162 µM) | relative viability (Motesanib + Pictilisib; first compound 0.1 µM) | relative viability (Motesanib + Pictilisib; first compound 0.3162 µM) | relative viability (Motesanib + Pictilisib; first compound 1 µM)
ABC-1 | 1.14 | 1.59 | 0.752 | 0.633 | 1.12 | 0.945 | 1.01 | 1.27 | 1.17 | 0.875 | 0.845 | 0.659 | 0.945 | 0.81 | 0.962 | 0.715 | 0.707 | 0.76
NCI-H838 | 0.895 | 0.85 | 0.597 | 0.622 | 0.98 | 1.03 | 0.914 | 1.19 | 1.02 | 1.05 | 0.819 | 0.815 | 0.982 | 0.496 | 0.441 | 0.462 | 0.449 | 0.508
A549 | 0.648 | 0.477 | 0.348 | 0.103 | 0.965 | 0.975 | 0.989 | 1.09 | 0.955 | 0.638 | 0.392 | 0.333 | 0.35 | 0.515 | 0.478 | 0.504 | 0.574 | 0.57
A-427 | 1.04 | 0.934 | 1.09 | 1.08 | 0.668 | 1.02 | 0.896 | 1.1 | 1.02 | 1.08 | 1.09 | 1.03 | 1.16 | 0.43 | 0.684 | 0.495 | 0.681 | 0.789
NCI-H1792 | 0.82 | 0.412 | 0.546 | 0.696 | 0.881 | 0.854 | 0.843 | 0.926 | 0.945 | 0.618 | 0.538 | 0.58 | 0.686 | 0.296 | 0.231 | 0.294 | 0.297 | 0.309
LCLC-97TM1 | 0.572 | 0.301 | 0.172 | 0.163 | 1.04 | 0.96 | 0.688 | 1.09 | 0.967 | 0.186 | 0.156 | 0.181 | 0.181 | 0.224 | 0.204 | 0.15 | 0.235 | 0.18
NCI-H1703 | 0.996 | 0.867 | 0.898 |  | 1.05 | 0.679 | 0.526 | 0.334 | 0.323 | 0.485 | 0.266 | 0.28 | 0.3 | 0.21 | 0.219 | 0.195 | 0.215 | 0.214
LCLC-103H |  |  |  |  |  |  |  |  |  | 1.01 | 0.818 | 0.829 | 1.08 |  | 0.613 | 0.542 | 0.639 | 0.709
PC-3 [JPC-3] | 0.457 | 0.403 | 0.382 | 0.398 | 0.465 | 0.459 | 0.451 | 0.42 | 0.465 | 1.06 | 0.945 | 0.893 | 0.974 | 0.774 | 0.858 | 0.733 | 0.853 | 0.706
BEN | 0.712 | 0.729 | 0.765 | 0.698 | 0.591 | 0.715 | 0.723 | 0.714 | 0.789 | 1.16 | 1.37 | 0.929 | 1.16 | 0.517 | 0.618 | 0.624 | 0.579 | 0.715
NCI-H1666 | 0.455 | 0.391 | 0.237 | 0.296 | 0.882 | 0.709 | 0.691 | 0.69 | 0.667 | 0.825 | 0.798 | 0.742 | 0.585 | 0.466 | 0.5 | 0.416 | 0.463 | 0.49
LC-2-ad | 0.904 | 0.759 | 0.745 | 0.32 | 0.947 | 0.921 | 0.999 | 1.1 | 0.843 | 0.764 | 0.726 | 0.61 | 0.504 | 0.449 | 0.593 | 0.479 | 0.568 | 0.421
SK-LU-1 | 0.821 | 0.861 | 0.598 | 0.577 | 0.844 | 1.02 | 0.894 | 0.961 | 1.01 | 1.18 | 0.965 | 0.825 | 0.708 | 0.494 | 0.481 | 0.553 | 0.628 | 0.663
ChaGo-K-1 |  |  |  |  |  |  |  |  |  |  |  |  |  |  | 0.535 | 0.532 | 0.638 | 0.757
COR-L 105 | 0.344 | 0.324 | 0.28 | 0.233 | 0.368 | 0.408 | 0.327 | 0.355 | 0.347 | 0.871 | 0.805 | 0.689 | 0.806 | 0.489 | 0.439 | 0.395 | 0.49 | 0.385
NCI-H1975 | 0.844 | 0.88 | 0.601 | 0.594 | 0.873 | 0.815 | 0.89 | 0.907 | 0.993 | 0.638 | 0.553 | 0.472 | 0.482 | 0.312 | 0.282 | 0.313 | 0.352 | 0.31
Calu-6 | 1.14 | 1.08 | 0.95 | 0.693 | 1.06 | 1.05 | 1.02 | 0.997 | 0.999 | 1.05 | 0.932 | 0.888 | 0.455 | 0.878 | 0.727 | 0.944 | 0.867 | 0.84
NCI-H1993 | 0.797 |  | 0.663 | 0.592 | 0.884 | 0.893 | 0.801 | 0.867 | 0.638 | 0.678 |  | 0.649 | 0.745 | 0.676 | 0.917 | 0.899 | 0.767 | 0.805
RERF-LC-KJ | 0.793 | 0.715 | 0.692 | 0.696 | 0.895 | 0.876 | 0.958 | 0.827 | 0.853 | 0.708 | 0.866 | 0.515 | 0.787 | 0.507 | 0.63 | 0.621 | 0.613 | 0.61
NCI-H441 |  |  |  |  |  |  |  |  |  | 0.616 | 0.547 | 0.492 | 0.56 | 0.414 | 0.524 | 0.518 | 0.441 | 0.506
